In brackets after ≈: the same amount, converted by molar mass. Like-named read-outs stand apart in the source and are kept apart here. One block for each compound: values may come before it.
Key:
[1] = test system: SK-BR-3 human mammary carcinoma cells; experiment: Crystal violet growth inhibition assay, 48 hour exposure; assay type: cell-based
Procedure: (§1) This experiment was performed using the crystal violet growth inhibition assay. Cells with varying degrees of FAS activity were plated at 5000 cells per well in 96 well plates in RPMI-1640 with 10% heat-inactivated fetal bovine serum. After 72 hours of incubation in a humidified 95% air: 5% CO2 atmosphere, varying concentrations (0-500 µg/ml) of TOFA (5-tetradecyloxyl)-2-furoic acid were added and cultures were re-incubated for 48 hours. Plates were then removed and stained with crystal violet as described. Absorbance readings were averaged for each concentration of agent (n=4), control (n=8), and background (n=8). Background readings were subtracted. The concentration of TOFA is plotted against growth (as % of control growth) in Figure 15.
In these experiments, cells were plated at 5000 cells per well in a 96-well microtiter plate and maintained in RPMI-1640 with 10% heat-inactivated fetal bovine serum for 72 hours. Next, the compounds indicated in Table 4 were added, and cells were incubated for an additional 48 hours. Growth inhibition was then measured using the crystal violet method.

[2] = test system: H'27; experiment: as above; assay type: cell-based; settings: Homo sapiens, read-out: ID50 (the source's name)
Procedure: as §1

[3] = test system: ZR-75-1; experiment: as above; assay type: cell-based; settings: Homo sapiens, read-out: ID50 (the source's name)
Procedure: as §1

[4] = test system: SW480; experiment: as above; assay type: cell-based; settings: Homo sapiens, read-out: ID50 (the source's name)
Procedure: as §1

[5] = biological target: condensing enzyme (Saccharomyces cerevisiae, UniProt P19097); settings: report of Morisaki, et. al.; cited from earlier work
[6] = test system: Raji cells; settings: cited from earlier work
[7] = biological target: rat liver acyl-CoA synthetase; settings: read-out: concentration causing 50% inhibition; cited from earlier work
[8] = test system: Vero; settings: cited from earlier work
[9] = test system: Hela cells; settings: cited from earlier work
[10] = test system: ZR-75-1 cells; experiment: Triacsin-C and cerulenin synergy, crystal violet growth inhibition; assay type: cell-based; settings: Homo sapiens, ZR-75-1, 24 h
Procedure: 96 well microtiter plates were plated with ZR-75-1 cells at 25,000 cells/well and incubated overnight (18 h) at 37° C in 5% CO2. Triacsin-C was added to achieve the following micromolar concentrations in the presence of 0, 2.5, 5.0 or 10.0 µg/ml cerulenin: 50, 25, 12.5, 6.2, 3.1, 1.6, 0.8, 0.4, 0.2, 0.1 and 0. Each concentration was performed in quadruplicate. Cells were incubated for 24 hours, washed in PBS, solubilized in 1% SDS, stained with 0.2% crystal violet in 2% ethanol, and read at 490 nm on a Molecular Diagnostics plate reader.

[11] = test system: Dupro-1; experiment: Population doubling assay, viable cell count (trypan blue); assay type: cell-based; settings: Homo sapiens; 48-hour exposure; relative to untreated cultures; read-out: concentration giving 50% inhibition of population doubling
Procedure: (§2) TSU-pr1 and Dupro-1 cell lines were plated in RPMI-1640 with 10% fetal bovine serum at 3 X 10^5 and 1 X 10^5 cells respectively/T25 flask in a humidified atmosphere of 95% air: 5% CO2. After 24 hours, initial plating density was measured. In addition, media was replaced (control) or cerulenin was added at 2.5-10 µg/ml to duplicate cultures. Forty-eight hours later, cells were trypsinized and viable cells (trypan blue excluding) counted. The number of population doublings was estimated.

[12] = test system: TSU-pr1; experiment: as above; assay type: cell-based; settings: Homo sapiens, 48-hour exposure, relative to untreated cultures, read-out: concentration giving 50% inhibition of population doubling
Procedure: as §2

[13] = test system: ZR-75-1 cells; experiment: Oleate rescue from cerulenin growth inhibition; assay type: cell-based, human; settings: 10 µg/ml cerulenin for 24 hours; 1.5 mM oleate
Procedure: ZR-75-1 cells (5,000 per well) were plated in 96 well microtiter plates in medium supplemented with 0, 0.5, 1.0 or 1.5 mM oleate bound to delipidized bovine serum albumin at a molar ration of 4:1. After 18 hours incubation, cerulenin was added at a dose of 10 µg/ml. Cells were stained and assayed as in Example 10 after 24 hours (Figure 17, upper line) or 48 hours (lower line). The middle line of Figure 17 represents cells which were re-fed at 24 hours with medium containing the respective oleate concentration without cerulenin and assayed after a 48 hour total incubation. Error bars represent standard error of the mean.

[14] = test system: H125 lung carcinoma line; experiment: Growth inhibition assay without oleic acid, single 24 h time point; assay type: cell-based; settings: no oleic acid, line with 11.6 picomoles per minute enzyme activity
Procedure: (§3) In vitro growth inhibition assays for OA-519 inhibition were performed using ZR-75-1 cells or normal human fibroblasts which were grown to confluence, and then 25,000 cells were plated in 1:1 conditioned:fresh medium (RPMI with 10% fetal calf serum) supplemented at a physiologic level to 0.5 millimolar oleic acid bound to previously delipidized bovine serum albumin. Cells were allowed to attach and grow overnight. At time 0, drugs diluted in RPMI medium with 10% fetal calf serum were added to achieve the following concentrations: 50 µg/ml to 0.01 µg/ml with serial two-fold dilutions including no drug and empty well controls. Each concentration was performed in quadruplicate and time points were taken at 4, 8, 24, and 48 h. After drug treatment, cells were stained with crystal violet, solubilized in SDS, and read on a Molecular Diagnostics automated plate reader at 570 nm.
Growth Inhibition Assay: Anti-proliferative activity of cerulenin for each cell line was determined using the same assay and drug concentrations described in Example 5, except that no oleic acid was added and a single 24 h time point was taken.

[15] = biological target: T1, OA-519 fatty acid synthase (Homo sapiens, UniProt P49327); experiment: Spectrophotometric fatty acid synthase assay (NADPH oxidation at 340 nm); assay type: biochemical
T1 construct: endogenous in cells; host or cells: ZR-75-1 breast carcinoma cell line (protein purified from the lysate)
T1 sequence (P49327 2-2511 limits assumed): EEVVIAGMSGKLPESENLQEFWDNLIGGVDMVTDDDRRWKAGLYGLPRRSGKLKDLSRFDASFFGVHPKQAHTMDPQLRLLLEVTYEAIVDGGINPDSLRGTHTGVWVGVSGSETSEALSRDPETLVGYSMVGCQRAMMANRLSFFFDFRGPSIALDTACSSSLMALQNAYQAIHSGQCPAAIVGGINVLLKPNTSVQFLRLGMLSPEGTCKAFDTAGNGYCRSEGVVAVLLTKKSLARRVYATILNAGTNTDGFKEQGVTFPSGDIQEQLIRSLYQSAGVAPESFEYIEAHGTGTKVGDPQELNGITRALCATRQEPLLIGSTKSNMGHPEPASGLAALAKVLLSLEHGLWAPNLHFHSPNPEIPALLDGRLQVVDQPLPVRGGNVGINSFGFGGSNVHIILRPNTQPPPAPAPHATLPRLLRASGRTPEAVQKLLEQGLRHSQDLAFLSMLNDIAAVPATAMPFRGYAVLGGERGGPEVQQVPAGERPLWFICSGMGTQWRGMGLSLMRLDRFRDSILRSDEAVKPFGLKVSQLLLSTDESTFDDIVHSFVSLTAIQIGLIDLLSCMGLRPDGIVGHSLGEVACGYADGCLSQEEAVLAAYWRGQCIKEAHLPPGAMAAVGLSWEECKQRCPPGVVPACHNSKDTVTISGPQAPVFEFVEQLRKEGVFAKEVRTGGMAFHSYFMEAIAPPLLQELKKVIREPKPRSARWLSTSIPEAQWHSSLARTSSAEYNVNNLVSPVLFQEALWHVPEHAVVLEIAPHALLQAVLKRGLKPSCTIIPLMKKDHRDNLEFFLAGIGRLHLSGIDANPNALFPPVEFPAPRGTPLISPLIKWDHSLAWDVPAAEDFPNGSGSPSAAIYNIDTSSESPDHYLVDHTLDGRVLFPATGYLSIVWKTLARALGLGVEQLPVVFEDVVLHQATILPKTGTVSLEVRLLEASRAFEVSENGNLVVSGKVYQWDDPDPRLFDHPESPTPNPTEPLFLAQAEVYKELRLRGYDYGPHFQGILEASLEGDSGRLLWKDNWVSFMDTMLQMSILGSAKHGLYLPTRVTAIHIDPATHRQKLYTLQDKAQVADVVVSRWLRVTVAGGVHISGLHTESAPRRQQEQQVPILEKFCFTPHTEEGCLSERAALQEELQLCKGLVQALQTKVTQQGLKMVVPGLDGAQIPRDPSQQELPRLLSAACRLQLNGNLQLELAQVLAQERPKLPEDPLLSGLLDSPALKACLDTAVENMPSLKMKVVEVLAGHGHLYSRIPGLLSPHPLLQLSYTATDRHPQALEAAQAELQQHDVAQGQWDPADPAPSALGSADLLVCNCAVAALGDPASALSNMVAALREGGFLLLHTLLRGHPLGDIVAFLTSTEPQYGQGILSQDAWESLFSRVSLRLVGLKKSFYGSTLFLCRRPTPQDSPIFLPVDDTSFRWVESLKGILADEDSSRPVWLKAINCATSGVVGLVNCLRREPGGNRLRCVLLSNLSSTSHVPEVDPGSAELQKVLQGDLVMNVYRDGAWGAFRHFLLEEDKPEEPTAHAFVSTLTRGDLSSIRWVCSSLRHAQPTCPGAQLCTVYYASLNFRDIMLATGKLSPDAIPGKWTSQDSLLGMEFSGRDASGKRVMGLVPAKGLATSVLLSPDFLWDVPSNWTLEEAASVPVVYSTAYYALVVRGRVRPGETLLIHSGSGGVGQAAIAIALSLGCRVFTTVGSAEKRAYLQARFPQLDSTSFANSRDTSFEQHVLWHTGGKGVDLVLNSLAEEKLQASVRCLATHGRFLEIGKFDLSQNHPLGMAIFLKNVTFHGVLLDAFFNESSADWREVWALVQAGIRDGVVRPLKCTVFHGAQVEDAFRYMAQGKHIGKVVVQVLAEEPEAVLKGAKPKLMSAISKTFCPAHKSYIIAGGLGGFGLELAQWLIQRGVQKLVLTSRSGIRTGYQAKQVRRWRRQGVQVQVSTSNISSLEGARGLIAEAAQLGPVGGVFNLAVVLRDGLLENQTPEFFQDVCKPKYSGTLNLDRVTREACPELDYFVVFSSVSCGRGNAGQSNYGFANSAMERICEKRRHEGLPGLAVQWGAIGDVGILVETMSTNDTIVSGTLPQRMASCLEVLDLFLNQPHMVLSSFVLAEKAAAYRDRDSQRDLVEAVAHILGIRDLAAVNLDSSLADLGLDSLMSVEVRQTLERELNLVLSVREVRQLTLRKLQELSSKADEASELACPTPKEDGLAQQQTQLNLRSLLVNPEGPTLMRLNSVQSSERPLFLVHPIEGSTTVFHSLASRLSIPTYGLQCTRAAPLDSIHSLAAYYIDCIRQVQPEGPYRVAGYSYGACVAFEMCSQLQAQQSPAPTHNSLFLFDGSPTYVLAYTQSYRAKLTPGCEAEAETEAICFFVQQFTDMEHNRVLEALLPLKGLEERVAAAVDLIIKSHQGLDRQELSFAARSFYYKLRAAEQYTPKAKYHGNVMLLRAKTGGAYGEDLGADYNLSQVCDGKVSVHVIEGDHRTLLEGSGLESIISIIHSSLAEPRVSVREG
Procedure: Spectrophotometric fatty acid synthase assay: The fatty acid synthase assay was performed in a total volume of 451 µl with the following components: 18.88 µg of purified OA-519 fatty acid synthase from the ZR-75-1 breast carcinoma cell line as described in Example 2, 25 nanomoles acetyl-CoA, 75 nanomoles NADPH, and 50 µl of 1 molar potassium phosphate, pH 6.6 at 25°C. The substrate malonyl-CoA was added at concentrations of 0.5 and 0.6 micromolar in the presence of 0, 9.9, 148, 198, or 397 micromolar cerulenin. HPLC grade water was added to achieve a final volume of 451 µl for all assays.
The enzyme, NADPH, acetyl-CoA, phosphate, cerulenin, and water were combined, vortexed, and incubated in a Beckman DU 650 spectrophotometer at 37°C. Oxidation of NADPH was monitored at 340 nm without substrate to determine background for 2 min. Malonyl-CoA was then added to the reaction cuvette, mixed, and incubated at 37°C while NADPH oxidation was determined at 10 second intervals at 340 nm in the spectrophotometer for a total of 2 min. All determinations were performed in duplicate.
Results: The spectrophotometric data was plotted according to Dixon (Dixon, M., Biochem. J., 55:170-171, 1953) which graphs inhibitor concentration versus 1/v for each given substrate concentration. […]

[16] = test system: ZR-75-1 cells; experiment: In vitro growth inhibition assay (crystal violet) with oleic acid supplement; assay type: cell-based, human; settings: for effect on carcinoma cells: standard in vitro growth inhibition assays
Procedure: as §3

[17] = test system: six cell lines listed in Table 3; experiment: 14C-acetate incorporation into acyl-glycerides; assay type: cell-based, human; settings: cerulenin 0, 2.5, 5.0 or 10.0 µg/ml; 6 hours
Procedure: (§4) Measurement of endogenous fatty acid incorporation into acyl-glycerides: For each cell type, 200,000 cells were plated in triplicate for non-polar and polar lipid analysis. Following overnight growth, each well of cells was incubated for 2 hours with 1 µCi ^14C acetate. ^14C-labeled lipids were extracted as above, and dried under N2. For analysis of non-polar lipids, samples were resuspended in 10 ul chloroform and spotted on silica gel N-HR (Brinkmann) and chromatographed in hexane:ethyl ether:acetic acid, 65:25:4 by volume. Cholesterol, palmitic acid, tripalmitin, and cholesterol palmitate (Matreya) were run as controls at 50 µg each. […] 50 µg each of cholesterol, phosphatidyl ethanolamine, lecithin, and lysolecithin (Matreya) were run as controls. ^14C-labeled lipids were detected and quantified using a Bioscan System 2000 imaging scanner with Autochanger 3000. […] Phosphatidylcholine and triglycerides were the predominant acyl-glycerides detected.
(§5) Measurement of endogenous fatty acid incorporation into acyl-glycerides and cholesterol: For each cell type, 200,000 cells were plated in triplicate for non-polar and polar lipid analysis for each drug dose in 24 well plates. […] For the last two hours of cerulenin incubation, 1 µCi of ^14C acetate was added per well. ^14C-labeled lipids were then extracted, chromatographed, and detected as described above. […]

[18] = biological target: viral HIV protease (Human immunodeficiency virus type 1 group M subtype B, UniProt P04585); settings: cited from earlier work
[19] = test system: MCF-7 cells; experiment: Clonogenic assay; assay type: cell-based, human; settings: 10 µg/ml; exposure time 24 hours
Procedure: Clonogenic assay: One million cells were plated in 25 cm sq. flasks. […] Cells were then trypsinized to a single cell suspension and plated in 16 mm dishes at 1000 or 500 cells per dish in triplicate. Following 3 days incubation for ZR-75-1 and MCF-7 cells, and 7 days for SKBR3 cells, colonies were counted and expressed as the percentage of the untreated control.

[20] = test system: normal human fibroblasts; experiment: In vitro growth inhibition assay (crystal violet) with oleic acid supplement; assay type: cell-based; settings: for effect on normal human fibroblasts: standard in vitro growth inhibition assays
Procedure: as §3

[21] = test system: SKBR3 cells; experiment: 14C-acetate incorporation into cholesterol; assay type: cell-based, human; settings: cerulenin 0, 2.5, 5.0 or 10.0 µg/ml; 6 hours
Procedure: as §4, §5

[22] = test system: MCF-7 cells; experiment: 14C-acetate incorporation into cholesterol; assay type: cell-based, human; settings: cerulenin 0, 2.5, 5.0 or 10.0 µg/ml; 6 hours
Procedure: as §4, §5

[23] = SK-BR-3, 48 h, read-out: ID50 (µg/ml)
[24] = SK-BR-3, 48 hours, dose giving 50% reduction of control absorbance, quadruplicate, read-out: ID50 (the source's name)

Structure (SMILES): O=C(O)C(=O)CBr [Bromopyruvate]
IC50 [1, 23]: 52 µg/mL (≈ 311 µM)

Structure (SMILES): Cc1cc2c(C(C)C)c(O)c(O)c(C=O)c2c(O)c1-c1c(C)cc2c(C(C)C)c(O)c(O)c(C=O)c2c1O [Gossypol]
IC50 [1, 23]: 3.1 µg/mL (≈ 5.98 µM)

Structure (SMILES): NC(=O)CI [Iodoacetamide]
IC50 [1, 23]: 0.3 µg/mL (≈ 1.62 µM)

Structure (SMILES): CCN1C(=O)C=CC1=O [N-ethylmaleimide]
IC50 [1, 23]: 0.9 µg/mL (≈ 7.19 µM)

IC50 [1, 24]: 61.4 µg/mL (≈ 74.4 µM)
Structure (SMILES): CC(C)(COP(=O)(O)OP(=O)(O)OC[C@H]1O[C@@H](n2cnc3c(N)ncnc32)[C@H](O)[C@@H]1OP(=O)(O)O)[C@@H](O)C(=O)NCCC(=O)NCCSCC(=O)O [S-carboxymethyl CoA]

Structure (SMILES): CCC/C(=N\OCC)C1=C(O)CC(CC(C)SCC)CC1=O (centres unmarked) [Sethoxydim]
IC50 [1, 23]: 9.5 µg/mL (≈ 29 µM)

IC50 [4]: 59.8 µg/mL (≈ 184 µM)
IC50 [1, 24]: 4.6 µg/mL (≈ 14.2 µM)
Structure (SMILES): CCCCCCCCCCCCCCOc1ccc(C(=O)O)o1 [TOFA, 5 (tetradecyloxy)-2-furoic acid]
IC50 [2]: 44.7 µg/mL (≈ 138 µM)
IC50 [3]: 0.8 µg/mL (≈ 2.47 µM)

Structure (SMILES): CCCCCCCCC(=O)C1OC1C(N)=O (centres unmarked) [Tetrahydrocerulenin]
times less potent than cerulenin [5]: 80-150 times

Structure (SMILES): CCC/C=C/C/C=C/C=C/C=NN=NO [Triacsin C, 1-hydroxy-3-(E, E, E-2', 4', 7' - undecatrienylidine) triazene]
concentration causing growth inhibition [6]: 1.0 µM
IC50 [7]: 8.7 µM
growth inhibition [8]: inhibit growth
growth inhibition [9]: inhibit growth
IC50 ([10]; cerulenin added at a level approximating its ID50): < 1 µM
IC50 ([10]; triacsin-C alone, read-out: ID50 (the source's name)): ~15 µM

Structure (SMILES): C/C=C/C/C=C/CCC(=O)[C@H]1O[C@H]1C(N)=O [cerulenin, (2S) (3R) 2,3-epoxy-4-oxo-7,10 dodecadienoyl amide]
IC50 [11]: 3 to 4 µg/mL (≈ 13.4 to 17.9 µM)
IC50 [12]: 3 to 4 µg/mL (≈ 13.4 to 17.9 µM)
reversal of growth inhibition by oleate [13]: virtually complete reversal of growth inhibition
growth inhibition [14]: 48%
Ki ([15]; for the substrate malonyl-CoA, Dixon plot, enzyme purified from ZR-75-1, read-out: apparent Ki): 32 µM
type of inhibition of OA-519 fatty acid synthase activity ([15]; purified OA-519): non-competitive inhibitor
inhibition at 6.25 µg/mL ([16]; Homo sapiens, ZR-75-1, cerulenin 6.25 µg/ml, by 48 h, 0.5 millimolar oleic acid, read-out: growth inhibited): > 80%
effect on carcinoma cells [16]: anti-proliferative
incorporation of 14C-acetate into acyl-glycerides [17]: consistently and significantly inhibited in a dose-related manner
concentration at which inhibition occurs [18]: 5 mg/mL
cell kill [19]: greater than three logs of cell kill
effect on growth ([20]; cerulenin 6.25 µg/ml, 0.5 millimolar oleic acid): unaffected
effect on normal human fibroblasts [20]: little effect
cholesterol synthesis [21]: stimulation
cholesterol synthesis [22]: mild inhibition
IC50 [1, 24]: 3.6 µg/mL (≈ 16.1 µM)

Structure (SMILES): Nc1nc(N)nc(Nc2ccc([As]3SCC(CO)S3)cc2)n1 (centres unmarked) [melarsoprol]
effect on carcinoma cells [16]: anti-proliferative
effect on normal human fibroblasts [20]: little effect
